In US20200023000A1, “SYNERGISM OF GOS AND POLYFRUCTOSE” (N.V. Nutricia, priority 2004, published 2020):

Legend:
[1] = tested on: distal and proximal part of the colon; experiment: Contraction of isolated colon segments in organ bath; design: species or system Male Wistar rats; details: for Tension of tonic contractions (FIG. 5): increasing concentrations up to 100 mM, effect higher in distal than proximal colon
Text: Male Wistar rats (CKP/Harlan, Wageningen/Horst, Netherlands) were housed under conditions of controlled temperature and light cycle and were provided free access to food pellets and water. Animals were anaesthetised by a mixture of N2O, O2 and isofluran, the abdomen was opened and the colon was removed immediately. The tissue was placed in Krebs-Henseleit buffer pH 7.4 (composition in mM: 118.0 NaCl, 4.75 KCl, 1.18 MgSO4, 2.5 CaCl2, 10 glucose, 1.17 KH2PO4 and 24.9 NaHCO3).
The colon was cut into a distal and a proximal portion and was rinsed with Krebs-Henseleit buffer while gently squeezing out faecal content. To approximate in vivo conditions as closely as possible, 1 cm fully intact segments were attached longitudinally to an isometric force transducer (F30 type 372, HSE, Germany) in 20 ml water-jacketed (37° C.) organ baths (Schuler, HSE, Germany) containing Krebs-Henseleit buffer gassed continuously with 95% O2-5% CO2. The segments were gradually stretched to a resting tension of 1 g and allowed to equilibrate for 45 minutes with intermittent washings. The tensions of the segments in rest and in response to different stimuli were amplified by a transducer amplifier module (HSE, Germany) and recorded on a multi-pen recorder (Rikadenki, HSE, Germany).
The segments were incubated with 40 mM KCl for 5 minutes and the contractile responses were measured. KCl was washed out by three consecutive washes at 5 minutes intervals. The segments were then incubated with increasing concentrations up to 100 mM of acetate or sodium-L-lactate. The acid solutions were prepared freshly in distilled water. NaOH was added to acetate to obtain a neutral pH. At the end of the incubation with a fatty acid, 40 mM KCl was added to determine whether the contractile response to KCl was influenced by the fatty acid. Before a new incubation the segments were allowed to equilibrate for 45 minutes in fresh Krebs-Henseleit buffer with intermittent washings.
The experimental protocol consisted of two proximal and two distal sections of the colon. For data analysis (n=3), the contraction level induced by the stimuli was defined as the tension in g after 5 minutes incubation. Data obtained from identical segments (proximal or distal) were used to calculate a mean value and each segment served as its own control sample.

[2] = tested on: PGE1 and PGE2 response in CCD18 cells; experiment: Spontaneous PGE1 and PGE2 response in CCD18 cells; format: cell-based; details: n=7
Description: (§1) The effect of lactate and a SCFA mixture was analysed as described in Willemsen, L E M, Koetsier M A, van Deventer S J H, van Tol E A F (2003), Gut 52:1442-1447, with the following modifications: Lactate and a mixture of acetate/propionate/butyrate 90/5/5 was tested. For the mucus production experiments a co-culture of CCD18 and T84 cells was used, whereas for the PGE1 and PGE2 production experiments a monoculture of CCD18 cells was used.

[3] = tested on: muc-2 expression in a CCD18/T84 co-culture; experiment: muc-2 expression in CCD18/T84 co-culture; format: cell-based
Description: as §1

[4] = proximal part of the colon, 25 mM
[5] = proximal part of the colon, concentrations higher than 25 mM

## C[C@H](O)C(=O)[O-].[Na+] [sodium-L-lactate]
[1]; distal part of the colon
  Number of spontaneous (phasic) contractions: no effects are observed
[1]
  Tension of tonic contractions (FIG. 5): decrease the tension of tonic contractions
[1]; proximal part of the colon
  Number of spontaneous (phasic) contractions: decrease
[1]; [4]
  Tonic contractions as a response to KCl: comparable in the presence or absence
[1]; [5]
  Tonic contractions as a response to KCl: significant relaxation

## CC(=O)[O-].[Na+] [sodium acetate, reference compound]
[1]; distal part of the colon
  Number of spontaneous (phasic) contractions: no effects are observed
[1]
  Tension of tonic contractions (FIG. 5): decrease the tension of tonic contractions
[1]; proximal part of the colon
  Number of spontaneous (phasic) contractions: decrease
[1]; [4]
  Tonic contractions as a response to KCl: comparable in the presence or absence
[1]; [5]
  Tonic contractions as a response to KCl: significant relaxation

## C[C@H](O)C(=O)O [L-lactate]
[2]; at 100 μM
  Increase of PGE1 (FIG. 4b): statistically significant
[2]; at 250 μM, P<0.05
  Increase of PGE2 (FIG. 4b): statistically significant
[3]; at 0.5, 1 and 4 mM, n=6
  Increase of muc-2 expression (FIG. 4a): statistically significant
[3]; co-culture of CCD18 and T84 cells
  MUC-2 expression, dose dependence (FIG. 4A): dose dependently induces MUC-2 expression
